Broadly, the inhibition is the drop in the measured response relative to a control, in per cent. By melting point is commonly meant the temperature, or range, at which the solid turns liquid.

Several values for one entry are separate records, joined by “and”; a condition that tells them apart may be missing. Identical values can stand only once. Like-named read-outs stand apart in the source and are kept apart here.

We go through 23 compounds from patent US6444668B1 (Wyeth, priority 1999, dated 2002).

In data set [1] the test system is rat uterine decidualization. Nature of the data set: Rat decidualization assay. Type of data set: in vivo. The following applies: for Decidualization IC50: half-maximal decrease in EC50 progesterone induced decidual response; for Estimated average EC50 (decidual response) / Estimated EC50 for uterine wet weight (decidual response): s.c.; for Estimated average EC50 (decidual response): average of dose-response curves; for Estimated EC50 for uterine wet weight (decidual response): individual studies. The procedure: 1. Rat Decidualization Assay
b. Animals (RACUC Protocol #5002)
The animals are treated once daily for seven days.
Uteri are removed and trimmed of fat.
Body weight: Mean total animal body weight (default-kg)
Decidual response: [(D-C)/C]x100%

The next data set relates to T47D cells. Nature of the data set: T47D cell proliferation assay (BrdU incorporation). Type of data set: cell-based. The following applies: agonist mode, individual studies, read-out: Estimated EC50, BrdU incorporation. The procedure: 3. T47D Cell Proliferation Assay
The objective of this assay is the determination of progestational and antiprogestational potency by using a cell proliferation assay in T47D cells. A compound's effect on DNA synthesis in T47D cells is measured.
DMEM:F12 (1:1) (GIBCO, BRL) supplemented with 10% (v/v) fetal bovine serum (not heat-inactivated), 100U/ml penicillin, […] streptomycin, and 2 mM GlutaMax (GIBCO, BRL).
Minimum Essential Medium (MEM) (#51200-038GIBCO, BRL) phenol red-free supplemented with 0.5% charcoal stripped fetal bovine serum, 100U/ml penicillin, 200 mg/ml streptomycin, and 2 mM GlutaMax (GIBCO, BRL).
Stock T47 D cells are maintained in growth medium. For BrdU incorporation assay, cells are plated in 96-well plates (Falcon, Becton Dickinson Labware) at 10,000 cells/well in growth medium. […]
At the end of BrdU labeling, the medium is removed and BrdU incorporation is measured using a cell proliferation ELISA kit (#RPN 250, Amersham Life Science) according to manufacturer's instructions. […] Then 25 μl of 1 M sulfuric acid is added to each well to stop color reaction and optical density is read in a plate reader at 450 nm within 5 min.
Square root-transformed data are used for analysis of variance and nonlinear dose response curve fitting for both agonist and antagonist modes. […] EC50 or IC50 values are calculated from the retransformed values. […]

The mark [2] stands for this setting: read-out: Decidualization, percentage inhibition at the dose specified.

In turn, `CC1(C)OC(=O)Nc2ccc(-c3cccc(F)c3)cc21` [Compound 3, 6-(3-Fluoro-phenyl)-4,4-dimethyl-1,4-dihydro-benzo[d][1,3]-oxazin-2-one] yielded a melting point of 181 to 182 °C. Further, the inhibition at 3 mg/kg in data set [1] (setting [2]) came to 80%.
In turn, `N#Cc1cc(F)cc(-c2ccc3c(c2)C(C2CC2)(C2CC2)OC(=O)N3)c1` [Compound 15, 3-(4,4Dicyclopropyl-2-oxo-1,4-dihydro-2H-benzo[d][1,3]oxazin-6-yl)5-fluoro-benzonitrile] displayed a melting point of 250 to 252 °C. Further, the “Decidualization IC50” value in data set [1] was 3 mg/kg.
The corresponding values for `CC1(C)OC(=O)Nc2ccc(-c3cccc(Br)c3)cc21` [Compound 13] are 174 to 175 °C and 3 mg/kg.
Consider `CC1(C)OC(=O)Nc2ccc(-c3ccc(F)c(C#N)c3)cc21` [Compound 1, 5-(4,4Dimethyl-2-oxo-1,4-dihydro-2H-benzo[d][1,3]oxazin-6-yl)-2-fluoro-benzonitrile], for which the inhibition at 1 mg/kg in data set [1] (setting [2]) turned out to be 80%.
Take `CC1(C)OC(=O)Nc2ccc(-c3csc(C#N)c3)cc21` [Compound 17, 4-(4.4-Dimethyl-2-oxo-1.4dihydro-2H-benzo[d][1,3]oxazin-6-yl)thiophene2-carbonitrile]: the “Decidualization IC50” value in data set [1] is listed as 2.3 ± 0.46 mg/kg.
On the same count and under the same terms, to `CC1(C)OC(=O)Nc2ccc(-c3cc(F)cc(C#N)c3)cc21` [Compound 19, 3-(4,4-Dimethyl-2-oxo-1,4-dihydro-2H-benzo[d][1,3]oxazin-6-yl)-5-fluorobenzonitrile] belongs 0.35 mg/kg.
Turning to `CC1(C)OC(=O)Nc2ccc(-c3cncc(Br)c3)cc21` [Compound 16, 6-(5-Bromo-pyridin-3-yl)-4,4-dimethyl-1,4-dihydro-benzo[d][1,3]oxazin-2-one], the melting point lay in the range of 211 to 212 °C. In addition, the inhibition at 3 mg/kg in data set [1] (setting [2]) came to 50%.
`CC(=O)[C@H]1CC[C@H]2[C@@H]3CCC4=CC(=O)CC[C@]4(C)[C@H]3CC[C@]12C` [Progesterone, reference compound]: in data set [1], the “Estimated average EC50 (decidual response)” value (shortened to “Estimated average EC50”) is given as 5.62 mg/kg and the “Estimated EC50 for uterine wet weight (decidual response)” value (“Estimated EC50 for uterine wet weight” below) is listed as 5.50 mg/kg.
As to `Cc1cc(C#N)sc1-c1ccc2c(c1)C(C)(C)OC(=O)N2` [Compound 18, 5-(4. 4-Dimethyl-2-oxo-1. 4-dihydro-2H-benzo[d][1,3]oxazin-6-yl)-4-methyl-thiophene-2-carbonitrile], in data set [1], the “Decidualization IC50” value is on record as 1.5 mg/kg.
On to `C#C[C@]1(O)CC[C@H]2[C@@H]3CCC4=CC(=O)CC[C@@H]4[C@H]3CC[C@@]21CC` [Levonorgestrel, reference compound], for which, in data set [1], the “Estimated average EC50” value is 0.10 mg/kg; the “Estimated EC50 for uterine wet weight” value was 0.08 mg/kg and 0.12 mg/kg and 0.09 mg/kg (2×).
The compound `CC1(C)OC(=O)Nc2ccc(-c3cc(C#N)ccc3F)cc21` [Compound 5, 3-(4,4-Dimethyl-2-oxo-1,4-dihydro-2H-benzo[d][1,3]oxazin-6-yl)-4-fluoro-benzonitrile] displayed a melting point of 229 to 230 °C. For the same compound, in data set [1] (setting [2]), the inhibition at 1 mg/kg is 60%.
In the case of `Cc1cc(C#N)sc1-c1ccc2c(c1)C1(CCCCC1)OC(=O)N2` [Compound 10, 5-(1,2-Dihydro-2-oxospiro[4H-3,1-benzoxazine-4,1-cyclohexan]-6-yl)-4-methyl-2-thiophenecabonitrile], the “Decidualization, percentage inhibition at the dose specified” value in data set [1] (dose 10 mg/kg) is listed as 50% @ 1O.
Turning to `CC1(C)OC(=O)Nc2ccc(-c3ccc(F)c(Cl)c3)cc21` [Compound 20, 6-(3-Chloro-4-fluoro-phenyl)-4,4-dimethyl-1,4-dihydro-benzo[d][1,3]oxazin-2-one], the “Decidualization IC50” value in data set [1] was found to be 1 mg/kg.
Compound `CC1(C)OC(=O)Nc2ccc(-c3cc(Cl)cc(Cl)c3)cc21` [Compound 4, 6-(3,5dichloro-phenyl)-4,4-dimethyl-1,4-dihydrobenzo-[d][1,3]oxazin-2-one] gave a melting point of 245 to 246 °C. Also, the inhibition at 1 mg/kg in data set [1] (setting [2]) was 60%.
For `CC1(C)OC(=O)Nc2ccc(-c3cc(F)cc(Br)c3)cc21` [Compound 8, 6-(3-Bromo-5-fluorophenyl)-4,4-dimethyl-1,4-dihydrobenzo[d][1,3]oxazin-2-one], the melting point was in the range of 182 to 183 °C. Also, the inhibition at 3 mg/kg in data set [1] (setting [2]) is 50%.
Regarding `C[C@H](O)C(=O)[C@@]1(C)CC[C@H]2[C@@H]3CCC4=CC(=O)CCC4=C3CC[C@@]21C` [Trimegestone], in the data set on T47D cells, the EC50 was 0.017 nM and 0.014 nM and 0.019 nM.
Consider `CC1(C)OC(=O)Nc2ccc(-c3cc(F)cc(Cl)c3)cc21` [Compound 14, 6-(3-Chloro-5fluoro-phenyl)-4,4dimethyl-1,4-dihydro-benzo[d][1,3]oxazin-2-one], for which the inhibition at 3 mg/kg in data set [1] (setting [2]) was found to be 50%.
The compound `CC1(C)OC(=O)Nc2ccc(-c3cc(F)cc(C(F)(F)F)c3)cc21` [Compound 2, 6-(3-Fluoro-5-trifluoromethyl-phenyl)-4,4-dimethyl-1,4-dihydro-benzo[d][1,3]oxazin-2-one] had a melting point of 207 to 208 °C. In data set [1] (setting [2]), the inhibition at 1 mg/kg worked out at 50%.
`CC1(C)OC(=O)Nc2ccc(-c3ccc(C#N)s3)cc21` [Compound 12, 5-(4,4-Dimethyl-2-oxo-1,4-dihydro-2H-benzo[d][1,3]oxazin-6-yl)-thiophene-2-carbonitrile] returned a melting point of 264 to 266 °C. In addition, in data set [1], the “Decidualization IC50” value is reported as 3.34 ± 0.22 mg/kg.
Compound `N#Cc1ccc(-c2ccc3c(c2)C2(CCCCC2)OC(=O)N3)s1` [Compound 11, 5-(1,2-Dihydro-2-oxospiro[4H-3,1-benzoxazine-4,1-cyclohexan]-6-yl)-2-thiophenecarbonitrile] yielded a melting point of 243 to 245 °C. The inhibition at 10 mg/kg in data set [1] (dose 10 mg/kg, read-out: Decidualization, percentage inhibition at the dose specified) amounted to 50%.
Take `CC(=O)O[C@]1(C(C)=O)CC[C@H]2[C@@H]3C[C@H](C)C4=CC(=O)CC[C@]4(C)[C@H]3CC[C@@]21C` [MPA, medroxyprogesterone acetate, reference compound]: the EC50 with T47D cells (Homo sapiens, T47D) was 0.019 nM. In addition, in data set [1], the “Estimated EC50 for uterine wet weight” value was 0.42 mg/kg and 0.39 mg/kg (2×).
With `CC1(C)OC(=O)Nc2ccc(-c3cc(F)cc([N+](=O)[O-])c3)cc21` [Compound 6, 6-(3-Fluoro-5-nitro-phenyl)-4,4-dimethyl-1,4dihydro-benzo[d][1,3]oxazin-2-one], the melting point is 260 to 261 °C. Also, the inhibition at 1 mg/kg in data set [1] (setting [2]) was found to be 50%.
As to `C#C[C@]1(O)CC[C@H]2[C@@H]3CCC4=CC(=O)CC[C@@H]4[C@H]3C(=C)C[C@@]21CC` [3-Ketodesogestrel, reference compound], in data set [1], the “Estimated average EC50” value is recorded as 0.10 mg/kg; the “Estimated EC50 for uterine wet weight” value was 0.10 mg/kg and 0.06 mg/kg and 0.11 mg/kg.
